Results on 1 substance are retold here after patent US7988956B2, “Hydrolytically degradable carbamate derivatives of poly(ethylene glycol)” (Nektar Therapeutics, priority 1999, dated 2011).

Series [1] has as its system Micrococcus lysodeikticus. Kind of series: Bioactivity measurement of reversible lysozyme conjugate (Sigma HEW lysozyme protocol, decrease in absorbance at 450 nm). Format: biochemical. The following applies: 66 mM sodium phosphate buffer pH 6.24. As for the experimental part: Bioactivity of free lysozyme, PEG conjugates of lysozyme and lysozyme recovered from hydrolysis of the conjugates were measured by an assay from the standard protocol of Sigma for hen's egg white (HEW) lysozyme EC.3.2.1.17. A solution containing the unmodified or PEG-modified lysozyme was diluted to 5.5 μg/ml in a 66 mM sodium phosphate buffer (pH 6.24). A suspension of 1.5 mg Micrococcus lysodeikticus in 10 ml of 66 mM phosphate buffer (pH 6.24) was allowed to equilibrate at room temperature until the absorbance at 450 nm was constant. Then 0.1 ml of a lysozyme solution was placed in a 1 cm light path quatz cuvette containing 2.5 ml of the substrate suspension. The decrease in the absorbance at 450 nm was recorded and the activity was determined from the maximum linear rate. Eighty-two percent of lysozyme bioactivity was recovered from the m-PEG-lysozyme conjugate, while the mPEG lysozyme had undetectable bioactivity prior to hydrolysis.

The nature of series [2]: Hydrolysis of the PEG conjugate of lysozyme monitored by capillary electrophoresis. Format: physicochemical. The following applies: after hydrolysis for 10 days at pH 7 and 37° C.; CE, FIG. 1 Curve B. As for the experimental part:
The conjugates prepared as described above were placed at 37° C. and at room temperature and hydrolysis was monitored by capillary electrophoresis (CE).
CE conditions: A solution of 25 mM phosphate buffer, containing 0.1 mg/ml PEO 600K, pH 2.7 was flushed through the capillary for approximately 15-20 min. A voltage of 15 kV was applied until a smooth baseline was obtained. The 25 mM phosphate buffer solution was again flushed through for approximately 5 min and the capillary was then ready for sample injection. The sample, which was adjusted to pH 2 by a phosphate buffer (0.1 M, pH 2), was injected hydrostatically for about […] at a height of approximately 6 inches. A voltage of 15 kV was applied throughout the run with a current between 24 and 30 μA. The protein and PEG-protein conjugate were detected by a UV monitor at 214 nm. The CE instrument consists of a high-voltage power supply (Spellman CZE1000R), a fused silica capillary (75 μm i.d., 360 μm o.d., Polymicro Technologies, Phoenix, Ariz.) and a linear 200 UV/VIS monitor supplied with a deuterium lamp and a capillary flow cell. The total length of the capillary was 64.5 cm, with a 1 cm optical window at 40 cm from the anode. UV data was retrieved and stored using LabVIEW version 4.0.1 software (National Instruments).

As to “mPEG-lysozyme conjugate: mPEG-lysozyme conjugate prepared with N-mPEG benzamide-m-succimidyl carbonate; mono, di and tri PEGylated lysozyme”, in series [1] (PEG conjugate before hydrolysis), the “bioactivity prior to hydrolysis” value was “undetectable”. In addition, the “lysozyme bioactivity recovered from the conjugate” value in series [1] (lysozyme recovered from hydrolysis of the conjugate) is “Eighty-two”. The free lysozyme released result in series [2] was “more than 85%”.
